Oligonucleotides are written 5' to 3', each unit as a sugar letter and its base; * is a phosphorothioate linkage, no mark a phosphodiester; rarer units and linkages stand in square brackets, end groups in braces. Plain capitals give the bases only. e = 2'-O-(2-methoxyethyl) (MOE); l = locked nucleic acid (LNA); [5mC] = 5-methylcytosine; d = 2'-deoxy (DNA)
Tested on: GRN mRNA
Test: GRN mRNA qPCR in SK-N-AS cells transfected with ASOs
Format: cell-based, human
Settings: SK-N-AS
Procedure: The best ASOs based on increased GRN mRNA fold-change were selected for further characterization in dose titration studies. Briefly, human neuroblastoma SK-N-AS cells were transfected with 20 to 160 nM of ASOs CO-3423, CO-3431, CO-3463, and CO-3503. A steric non-targeting control ASO (sNTC) was used as a control. Cells were collected for mRNA analysis after 48 hours and GRN mRNA quantified by qPCR. Housekeeping genes for normalization were GAPDH and PPIA, and mRNA fold change (FC) was normalized to sNTC.
36 additional ASOs were designed with different modifications and base walking around selected ASOs. The effect of increasing doses of these ASOs was assessed in the human neuroblastoma cell line SK-N-AS following transfection. Relative GRN mRNA levels in SK-N-AS cells after treatment was assessed 48-hours post-transfection, and data from exemplary ASOs is shown in FIGS. 5A and 5B.
Additional chemical modifications, including LNA, modifications were made to CO-3423. SK-N-AS cells were transfected with increasing concentrations of the LNA/PS modified ASOs and GRN mRNA quantified by qPCR. ASOs including different LNA modifications of CO-3423 had similar efficacy (i.e, similar increased GRN mRNA expression). GRN mRNA was normalized to the average fold-change of cells treated with two steric non-targeting control ASOs (CO-3772 and CO-1589 (sNTC1)).
The effect of ASO length on GRN gene expression modulation was also investigated. SK-N-AS cells were transfected with increasing concentrations of the longer ASOs and GRN mRNA quantified by qPCR. Increasing the length of CO-3423 increased the potency of the ASO, as shown in Table 4. mRNA was normalized to the average fold change of cells treated with two steric non-targeting control ASOs (CO-3772 and CO-1589 (sNTC1)).
To determine whether variations in the PO/PS internucleotide bond linkages impacted the ability of CO-3423 and CO-3431 to modulate gene expression, several modified ASOs based on these parent ASOs were prepared. SK-N-AS cells were transfected with increasing concentrations of the mixed PO/PS bond ASOs described in Tables 5 and 6, and GRN mRNA quantified by qPCR.
GRN mRNA fold-change after treatment with mixed PO/PS bond versions of CO-3423 is shown in Table 5. mRNA was normalized to the average fold change of cells treated with steric nontargeting controls (CO-3772, CO-1589 (sNTC1), and CO-1929 (sNTC3)).
GRN mRNA fold-change after treatment with mixed PO/PS bond versions of CO-3431 is shown in Table 6. mRNA was normalized as described above.
To further assess the effect of additional modifications on the ability of CO-3423 parent ASO to modulate GRN gene expression, additional LNA tiling and PO bond modifications were incorporated to CO-3423. SK-N-AS cells were transfected with increasing concentrations of the modified ASOs and GRN mRNA quantified by qPCR. CO-3423 was used for comparison. GRN mRNA was normalized to the average fold-change of cells treated with a steric non-targeting control ASO, CO-1589 (sNTC1).
To further assess the effect of modifications on the ability of CO-3463 parent ASO to modulate GRN gene expression, ASOs based on this ASOS incorporating additional LNA modifications were prepared and compared to […]. SK-N-AS cells were transfected with increasing concentrations of the ASOs and GRN mRNA quantified by qPCR. GRN mRNA was normalized to the average fold-change of cells treated with a steric non-targeting control ASO, CO-1589 (sNTC1).
68 additional ASOs were designed to target intergenic enhancers (eRNA). 48 hours post-transfection, the cells were collected for GRN mRNA analysis using qPCR. CO-1589, a steric nontargeting control ASO, was used as a control. GRN mRNA was normalized to cells treated with CO-1589.
The best hits from these ASOs were tested in a dose escalation study. Cells were incubated for 48 hours. Subsequently, the cells were collected for mRNA quantification via RT-qPCR. […]

[1] = Table 4, normalized to CO-3772 and CO-1589 (sNTC1)
[2] = Table 4, 120 nM, normalized to CO-3772 and CO-1589 (sNTC1)
[3] = Table 10, 48 hours, normalized to CO-1589
[4] = Table 3, normalized to CO-3772 and CO-1589 (sNTC1)
[5] = Table 3, 120 nM, normalized to CO-3772 and CO-1589 (sNTC1)
[6] = Table 13, normalized to CO-1589
[7] = Table 13, 120 nM, normalized to CO-1589
[8] = Table 7, normalized to CO-1589 (sNTC1)
[9] = Table 5, normalized to CO-3772, CO-1589 and CO-1929
[10] = Table 6, normalized to CO-3772, CO-1589 and CO-1929
[11] = Table 6, 120 nM, normalized to CO-3772, CO-1589 and CO-1929

Row | Substance | 30 nM FC (GRN mRNA) [1] [FC] | 60 nM FC (GRN mRNA) [1] [FC] | 120 nM FC (GRN mRNA) [2] [FC] | 30 nM FC (GRN mRNA) [4] [FC] | 60 nM FC (GRN mRNA) [4] [FC] | 120 nM FC (GRN mRNA) [5] [FC] | other results
1 | CO-4124: GRN paRNA-targeting ASO; longer ASO related to CO-3423 (antisense eG*eA*e[5mC]*eT*eT*eG*eG*eG*eA*eG*eT*eG*eG*eT*eG*eA*e[5mC]*eT*eG*eA) | 1.2 | 1.7 | 1.7 | – | – | – | hGRN mRNA FC (Table 9, 120 nM, 48 hours post-transfection, normalized to CO-1589): 1.3 FC; 3.75 nM FC (GRN mRNA) (Table 10, 3.75 nM, 48 hours, normalized to CO-1589): 1.0 FC; 7.5 nM FC (GRN mRNA) [3]: 1.0 FC; 15 nM FC (GRN mRNA) (Table 10, 15 nM, 48 hours, normalized to CO-1589): 1.0 FC; 30 nM FC (GRN mRNA) [3]: 1.2 FC; 60 nM FC (GRN mRNA) [3]: 1.4 FC; 120 nM FC (GRN mRNA) (Table 10, 120 nM, 48 hours, normalized to CO-1589): 1.9 FC
2 | CO-4353: LNA/PS modified ASO based on CO-3423 (antisense eG*eG*eA*e[5mC]*eT*lT*dG*dG*lG*dA*dG*lT*dG*dG*lT*eG*eA*e[5mC]*eT*eG) | – | – | – | 1.4 | 1.4 | 1.8 | –
3 | CO-4354: LNA/PS modified ASO based on CO-3423 (antisense eG*eG*eA*l[5mC]*eT*lT*eG*lG*eG*lA*eG*lT*eG*lG*eT*lG*eA*l[5mC]*eT*eG) | – | – | – | 1.6 | 1.9 | 1.9 | –
4 | CO-4355: LNA/PS modified ASO based on CO-3423 (antisense eG*eG*lA*e[5mC]*lT*eT*lG*eG*lG*eA*lG*eT*lG*eG*lT*eG*lA*e[5mC]*eT*eG) | – | – | – | 1.6 | 1.8 | 1.9 | –
5 | CO-4356: LNA/PS modified ASO based on CO-3423 (antisense eG*eG*lA*e[5mC]*eT*lT*eG*eG*lG*eA*eG*lT*eG*eG*lT*eG*eA*l[5mC]*eT*eG) | – | – | – | 1.6 | 1.8 | 2.2 | –
6 | CO-4357: LNA/PS modified ASO based on CO-3423 (antisense eG*eG*eA*e[5mC]*lT*eT*eG*eG*lG*eA*eG*eT*lG*eG*eT*eG*lA*e[5mC]*eT*eG) | – | – | – | 1.5 | 1.7 | 2.4 | –
7 | CO-4358: LNA/PS modified ASO based on CO-3423 (antisense eG*eG*eA*l[5mC]*eT*eT*eG*lG*eG*eA*eG*lT*eG*eG*eT*lG*eA*e[5mC]*eT*eG) | – | – | – | 1.5 | 1.9 | 2.0 | –
8 | CO-4360: LNA/PS modified ASO based on CO-3423 (antisense eG*eG*eA*e[5mC]*lT*eT*eG*eG*eG*lA*eG*eT*eG*eG*lT*eG*eA*e[5mC]*eT*eG) | – | – | – | 1.4 | 1.8 | 2.5 | –
9 | CO-4361: longer ASO based on CO-3423 (antisense eG*eA*e[5mC]*eT*eT*dG*dG*dG*dA*dG*dT*dG*dG*dT*dG*eA*e[5mC]*eT*eG*eA) | 1.1 | 1.3 | 1.6 | – | – | – | –
10 | CO-4362: longer ASO based on CO-3423 (antisense eG*eA*e[5mC]*eT*eT*dG*dG*dG*eA*dG*dT*eG*dG*dT*dG*eA*e[5mC]*eT*eG*eA) | 1.1 | 1.1 | 1.4 | – | – | – | –
11 | CO-4363: longer ASO based on CO-3423 (antisense eG*eG*eA*e[5mC]*eT*eT*eG*eG*eG*eA*eG*eT*eG*eG*eT*eG*eA*e[5mC]*eT*eG*eA) | 1.3 | 2.2 | 1.8 | – | – | – | 30 nM FC (GRN mRNA) [6]: 1.6 FC; 60 nM FC (GRN mRNA) [6]: 1.7 FC; 120 nM FC (GRN mRNA) [7]: 1.7 FC
12 | CO-4364: longer ASO based on CO-3423 (antisense eG*eG*eA*e[5mC]*eT*eT*eG*eG*eG*eA*eG*eT*eG*eG*eT*eG*eA*e[5mC]*eT*eG*eA*eA*e[5mC]) | 1.1 | 1.3 | 1.6 | – | – | – | 7.5 nM FC (GRN mRNA) [8]: 1.1 FC; 13 nM FC (GRN mRNA) (Table 7, 13 nM, normalized to CO-1589 (sNTC1)): 1.2 FC; 30 nM FC (GRN mRNA) [8]: 1.7 FC; 60 nM FC (GRN mRNA) [8]: 2.1 FC; 120 nM FC (GRN mRNA) (Table 7, 120 nM, normalized to CO-1589 (sNTC1)): 1.9 FC; 150 nM FC (GRN mRNA) (Table 7, 150 nM, normalized to CO-1589 (sNTC1)): 2.3 FC; 30 nM FC (GRN mRNA) [6]: 1.1 FC; 60 nM FC (GRN mRNA) [6]: 1.5 FC; 120 nM FC (GRN mRNA) [7]: 1.6 FC
13 | CO-4453: mixed PO/PS bond version of CO-3423 (antisense eG*eG*eAe[5mC]eT*eT*eG*eG*eG*eA*eG*eT*eG*eG*eT*eGeAe[5mC]*eT*eG) | – | – | – | – | – | – | 30 nM FC (GRN mRNA) [9]: 1.4 FC; 60 nM FC (GRN mRNA) [9]: 1.9 FC; 120 nM FC (GRN mRNA) (Table 5, 120 nM, normalized to CO-3772, CO-1589 and CO-1929): 1.9 FC
14 | CO-4455: mixed PO/PS bond version of CO-3431 (antisense eA*eT*eTeGe[5mC]*eA*eG*eT*eG*eA*e[5mC]*eG*e[5mC]*e[5mC]*e[5mC]*e[5mC]eGeT*eT*eA) | – | – | – | – | – | – | 30 nM FC (GRN mRNA) [10]: 0.5 FC; 60 nM FC (GRN mRNA) [10]: 0.4 FC; 120 nM FC (GRN mRNA) [11]: 0.4 FC
15 | CO-4456: mixed PO/PS bond version of CO-3431 (antisense eA*eT*eTeGe[5mC]eAeG*eT*eG*eA*e[5mC]*eG*e[5mC]*e[5mC]e[5mC]e[5mC]eGeT*eT*eA) | – | – | – | – | – | – | 30 nM FC (GRN mRNA) [10]: 0.7 FC; 60 nM FC (GRN mRNA) [10]: 0.5 FC; 120 nM FC (GRN mRNA) [11]: 0.4 FC
16 | CO-4457: mixed PO/PS bond version of CO-3431 (antisense eA*eT*eTeGe[5mC]eAeGeTeGeAe[5mC]eGe[5mC]e[5mC]e[5mC]e[5mC]eGeT*eT*eA) | – | – | – | – | – | – | 30 nM FC (GRN mRNA) [10]: 0.2 FC; 60 nM FC (GRN mRNA) [10]: 0.1 FC; 120 nM FC (GRN mRNA) [11]: 0.1 FC
